# Assay results: patent US20230303540A1 (Merck Sharp & Dohme LLC, priority 2020, published 2023)
# Target: GST-tagged truncated human mutant G2019S LRRK2 (Homo sapiens, UniProt Q5S007, G2019S)
# Assay: LRRK2 G2019S Km ATP LanthaScreen assay
# Format: biochemical
# Settings: 134 μM ATP (Km ATP), LRRKtide substrate, mean IC50 values; read-out: LRRK2 pIC50 (converted)
# Method in brief: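 LanthaScreen TR-FRET read with fluorescein-LRRKtide and 134 μM ATP (Km) in Tris pH 8.5/10 mM MgCl2 buffer. The enzyme was preincubated 15 min with compound at room temperature, and the reaction ran 90 min at ambient temperature. Stopped with EDTA plus Tb anti-phospho-LRRKtide antibody; the 520/495 nm ratio gave a 4-parameter logistic IC50, mean of several runs.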
row,Compound,IC50 [nM]
1,"CC1(N2CCN(c3cc4nc(Nc5cnn(CC6C[C@@H](F)[C@H](F)C6)c5)ncc4cc3Cl)CC2)COC1 [Ex-4.65, 6-chloro-N-(1-{[(3R,4R)-3,4-difluorocyclopentyl]methyl}-1H-pyrazol-4-yl)-7-[4-(3-methyloxetan-3-yl)piperazin-1-yl]quinazolin-2-amine]",23.9
2,"CC1(N2CCN(c3cc4nc(Nc5cnn(CC6C[C@H](F)[C@@H](F)C6)c5)ncc4cc3Cl)CC2)COC1 [Ex-4.66, 6-chloro-N-(1-{[(3S,4S)-3,4-difluorocyclopentyl]methyl}-1H-pyrazol-4-yl)-7-[4-(3-methyloxetan-3-yl)piperazin-1-yl]quinazolin-2-amine]",8.88
3,"Cc1nscc1Nc1ncc2cc(Cl)c(N3CCN(C4(C)COC4)CC3)cc2n1 [Ex-4.67, 6-chloro-7-[4-(3-methyloxetan-3-yl)piperazin-1-yl]-N-(3-methyl-1,2-thiazol-4-yl)quinazolin-2-amine]",23.8
4,"CCn1ncc(Nc2ncc3cc(Cl)c(N4CCN(C5(C)COC5)CC4)cc3n2)c1Cl [Ex-4.68, 6-chloro-N-(5-chloro-1-ethyl-1H-pyrazol-4-yl)-7-[4-(3-methyloxetan-3-yl)piperazin-1-yl]quinazolin-2-amine]",3.38
5,"COC1CC(Cn2ncc(Nc3ncc4cc(Cl)c(N5CCN(C6(C)COC6)CC5)cc4n3)c2Cl)C1 (stereo not drawn) [Ex-4.69, 6-chloro-N-{5-chloro-1-[(3-methoxycyclobutyl)methyl]-1H-pyrazol-4-yl}-7-[4-(3-methyloxetan-3-yl)piperazin-1-yl]quinazolin-2-amine]",3.23
6,"CC1(N2CCN(c3cc4nc(Nc5cnn(CC6CC6(F)F)c5)ncc4cc3Cl)CC2)COC1 (stereo not drawn) [Ex-4.70, 6-chloro-N-{1-[(2,2-difluorocyclopropyl)methyl]-1H-pyrazol-4-yl}-7-[4-(3-methyloxetan-3-yl)piperazin-1-yl]quinazolin-2-amine]",4.93
7,"FC1(F)CC(N2CCN(c3cc4nc(Nc5cnn(C6CC6)c5Cl)ncc4cc3Cl)CC2)C1 [Ex-4.71, 6-chloro-N-(5-chloro-1-cyclopropyl-1H-pyrazol-4-yl)-7-(4-(3,3-difluorocyclobutyl)piperazin-1-yl)quinazolin-2-amine]",11.1
8,"Cc1cc2cnc(Nc3cnn(C4(C)CC4)c3Cl)nc2cc1N1CCN(C2(C)COC2)CC1 [Ex-5.9, N-[5-chloro-1-(1-methylcyclopropyl)-1H-pyrazol-4-yl]-6-methyl-7-[4-(3-methyloxetan-3-yl)piperazin-1-yl]quinazolin-2-amine]",0.64
9,"Cc1cc2cnc(Nc3cnn(C4CC4)c3Cl)nc2cc1N1CCN(C2(C)COC2)CC1 [Ex-5.10, N-(5-chloro-1-cyclopropyl-1H-pyrazol-4-yl)-6-methyl-7-[4-(3-methyloxetan-3-yl)piperazin-1-yl]quinazolin-2-amine]",5.67
10,"Cc1cc2cnc(Nc3cnn(C4CC4)c3C)nc2cc1N1CCN(C2(C)COC2)CC1 [Ex-5.11, N-(1-cyclopropyl-5-methyl-1H-pyrazol-4-yl)-6-methyl-7-[4-(3-methyloxetan-3-yl)piperazin-1-yl]quinazolin-2-amine]",2.82
11,"Cc1cc2cnc(Nc3cnn(C4CC4(F)F)c3Cl)nc2cc1N1CCNCC1 (stereo not drawn) [Ex-5.14, N-(5-chloro-1-(2,2-difluorocyclopropyl)-1H-pyrazol-4-yl)-6-methyl-7-(piperazin-1-yl)quinazolin-2-amine]",11.6
12,"Cc1cc2cnc(Nc3cnn(C45CC(F)(C4)C5)c3Cl)nc2cc1N1CCNCC1 [Ex-5.15, N-(5-chloro-1-(3-fluorobicyclo[1.1.1]pentan-1-yl)-1H-pyrazol-4-yl)-6-methyl-7-(piperazin-1-yl)quinazolin-2-amine]",25.1
13,"CC1(N2CCN(c3cc4nc(Nc5cnn(CC(F)F)c5)ncc4cc3Cl)CC2)COC1 [Ex-6.1, 6-chloro-N-(1-(2,2-difluoroethyl)-1H-pyrazol-4-yl)-7-(4-(3-methyloxetan-3-yl)piperazin-1-yl)quinazolin-2-amine]",5.68
14,"CCn1ncc(Nc2ncc3cc(Cl)c(N4CCC(C)(O)CC4)cc3n2)c1F [Ex-6.3, 1-{6-chloro-2-[(1-ethyl-5-fluoro-1H-pyrazol-4-yl)amino]quinazolin-7-yl}-4-methylpiperidin-4-ol]",10.3
15,"Cc1c(Nc2ncc3cc(Cl)c(N4CCC(C)(O)CC4)cc3n2)cnn1C1CC1 [Ex-6.4, 1-{6-chloro-2-[(1-cyclopropyl-5-methyl-1H-pyrazol-4-yl)amino}quinazolin-7-yl}-4-methylpiperidin-4-ol]",1.92
16,"CC(C)(O)CC(O)Cn1ncc(Nc2ncc3cc(Cl)c(N4CCC(C)(O)CC4)cc3n2)c1Cl (stereo not drawn) [Ex-6.5, 1-(5-chloro-4-{[6-chloro-7-(4-hydroxy-4-methylpiperidin-1-yl)quinazolin-2-yl]amino}-1H-pyrazol-1-yl)-4-methylpentane-2,4-diol]",27.3
17,"CC1(O)CCN(c2cc3nc(Nc4cnn(C(C)(C)C#N)c4Cl)ncc3cc2Cl)CC1 [Ex-6.6, 2-(5-chloro-4-{[6-chloro-7-(4-hydroxy-4-methylpiperidin-1-yl)quinazolin-2-yl]amino}-1H-pyrazol-1-yl)-2-methylpropanenitrile]",4.02

row,Compound,IC50 [nM]
1,"Cc1cc(Nc2ncc3cc(Cl)c(N4CCC(C)(O)CC4)cc3n2)sn1 [Ex-6.8, 1-{6-chloro-2-[(3-methyl-1,2-thiazol-5-yl)amino]quinazolin-7-yl}-4-methylpiperidin-4-ol]",16.3
2,"CC1(O)CCN(c2cc3nc(Nc4cnn(C56CC(C5)C6)c4)ncc3cc2Cl)CC1 [Ex-6.11, 1-(2-{[1-(bicyclo[1.1.1]pentan-1-yl)-1H-pyrazol-4-yl]amino}-6-chloroquinazolin-7-yl)-4-methylpiperidin-4-ol]",0.808
3,"CC1(O)CCN(c2c(Cl)cc3cnc(Nc4cnn(C56CC(C5)C6)c4Cl)nc3c2Cl)CC1 [Ex-6.12, 1-(2-{[1-(bicyclo[1.1.1]pentan-1-yl)-5-chloro-1H-pyrazol-4-yl]amino}-6,8-dichloroquinazolin-7-yl)-4-methylpiperidin-4-ol]",1.24
4,"CO[C@H]1C[C@H](n2ncc(Nc3ncc4cc(Cl)c(N5CCC(C)(O)CC5)cc4n3)c2C)C1 [Ex-6.13, 1-(6-chloro-2-{[1-(trans-3-methoxycyclobutyl)-5-methyl-1H-pyrazol-4-yl]amino}quinazolin-7-yl)-4-methylpiperidin-4-ol]",0.976
5,"CO[C@H]1C[C@@H](n2ncc(Nc3ncc4cc(Cl)c(N5CCC(C)(O)CC5)cc4n3)c2C)C1 [Ex-6.14, 1-(6-chloro-2-{[1-(cis-3-methoxycyclobutyl)-5-methyl-1H-pyrazol-4-yl]amino}quinazolin-7-yl)-4-methylpiperidin-4-ol]",1.65
6,"Cc1c(Nc2ncc3cc(Cl)c(N4CCC(C)(O)CC4)cc3n2)cnn1C(C)(C)C#N [Ex-6.15, 2-(4-{[6-chloro-7-(4-hydroxy-4-methylpiperidin-1-yl)quinazolin-2-yl]amino}-5-methyl-1H-pyrazol-1-yl)-2-methylpropanenitrile]",3.57
7,"FC12CC(n3ncc(Nc4ncc5cc(Cl)c(N6CCNCC6)cc5n4)c3Cl)(C1)C2 [Ex-6.55, 6-chloro-N-(5-chloro-1-(3-fluorobicyclo[1.1.1]pentan-1-yl)-1H-pyrazol-4-yl)-7-(piperazin-1-yl)quinazolin-2-amine]",2.11
8,"C[C@@]1(N2CCN(c3cc4nc(Nc5cnn(C6CC6)c5C(F)F)ncc4cc3Cl)CC2)COC[C@@H]1O [Ex-6.56, (3R,4R)-4-(4-(6-chloro-2-((1-cyclopropyl-5-(difluoromethyl)-1H-pyrazol-4-yl)amino)quinazolin-7-yl)piperazin-1-yl)-4-methyltetrahydrofuran-3-ol]",0.08
9,"CCn1ncc(Nc2ncc3ccc(N4C(=O)OC[C@@H]4C)cc3n2)c1C [Ex-7.1, (S)-3-(2-((1-ethyl-5-methyl-1H-pyrazol-4-yl)amino)quinazolin-7-yl)-4-methyloxazolidin-2-one]",0.989
10,"C[C@H]1COC(=O)N1c1ccc2cnc(Nc3cnn([C@@H]4CCN(C5COC5)C[C@H]4F)c3Cl)nc2c1 [Ex-7.2, (4S)-3-[2-({5-chloro-1-[(3R,4R)-3-fluoro-1-(oxetan-3-yl)piperidin-4-yl]-1H-pyrazol-4-yl}amino)quinazolin-7-yl]-4-methyl-1,3-oxazolidin-2-one]",0.625
11,"Cc1nn(C2C[C@@H](C)O[C@@H](C)C2)cc1Nc1ncc2ccc(N3C(=O)OC[C@@H]3C)cc2n1 (stereo partly drawn) [Ex-7.5, (4S)-3-[2-({1-[(2R,6S)-2,6-dimethyloxan-4-yl]-3-methyl-1H-pyrazol-4-yl}amino)quinazolin-7-yl]-4-methyl-1,3-oxazolidin-2-one]",33.7
12,"C[C@H]1COC(=O)N1c1ccc2cnc(Nc3cn(C)nc3C(F)(F)F)nc2c1 [Ex-7.7, (4S)-4-methyl-3-(2-{[1-methyl-3-(trifluoromethyl)-1H-pyrazol-4-yl]amino}quinazolin-7-yl)-1,3-oxazolidin-2-one]",1.92
13,"Cc1nsc(Nc2ncc3ccc(N4C(=O)OC[C@@H]4C)cc3n2)c1C1CC1 [Ex-7.8, (4S)-3-{2-[(4-cyclopropyl-3-methyl-1,2-thiazol-5-yl)amino]quinazolin-7-yl}-4-methyl-1,3-oxazolidin-2-one]",11
14,"Cn1cc(Nc2ncc3ccc(N4C(=O)C5CCC4C5)cc3n2)c(C(F)(F)F)n1 (stereo not drawn) [Ex-7.9, 2-(2-{[1-methyl-3-(trifluoromethyl)-1H-pyrazol-4-yl]amino}quinazolin-7-yl)-2-azabicyclo[2.2.1]heptan-3-one]",34
15,"Cn1cc(Nc2ncc3ccc(N4C(=O)C5CCC4C5)cc3n2)c(C(F)(F)F)n1 (stereo not drawn) [Ex-7.10, 2-(2-{[1-methyl-3-(trifluoromethyl)-1H-pyrazol-4-yl]amino}quinazolin-7-yl)-2-azabicyclo[2.2.1]heptan-3-one]",5.14
16,"Cc1c(Nc2ncc3ccc(N4C(=O)OC[C@H]4C)cc3n2)cnn1C1CCOCC1 [Ex-7.11, (4R)-4-methyl-3-(2-{[5-methyl-1-(oxan-4-yl)-1H-pyrazol-4-yl]amino}quinazolin-7-yl)-1,3-oxazolidin-2-one]",9.35
